Key:
[1] = Selectivity ratio of EC50 for human HepG2 cells to EC50 for Plasmodium falciparum
Raji = assay: Cytotoxicity against human Raji cells after 72 hrs by luminescence assay; format: cell-based
BJ = assay: Cytotoxicity against human BJ cells after 72 hrs by luminescence assay; format: cell-based
HepG2 = assay: Cytotoxicity against human HepG2 cells after 72 hrs by luminescence assay; format: cell-based; details: hepg2, 72 h
HEK293 = assay: Cytotoxicity against human HEK293 cells after 72 hrs by luminescence assay; format: cell-based; details: hek293, 72 h

| Compound | selectivity ratio [1] | Activity (Raji) | Activity (BJ) | Activity (HepG2) | Activity (HEK293) |
| --- | --- | --- | --- | --- | --- |
| Cl.O=C(CCc1ccccc1)c1ccccc1OCC(O)CN(C1CCCCC1)C1CCCCC1 (racemic) | > 10 | Non-toxic | Non-toxic | Non-toxic | Non-toxic |
| Cl.O=C(CCc1ccc(F)cc1)c1ccccc1OCC(O)CNCc1ccccc1 (racemic) | > 10 | Non-toxic | Non-toxic | Non-toxic | Non-toxic |
| Cl.O=C(CCc1ccc(F)cc1)c1ccccc1OCC(O)CN(Cc1ccccc1)c1ccccc1 (racemic) | > 10 | Non-toxic | Non-toxic | Non-toxic | Non-toxic |
| COc1cccc(N(CC(O)COc2ccccc2C(=O)CCc2ccc(F)cc2)c2ccccc2)c1.Cl (racemic) | > 10 | Non-toxic | Non-toxic | Non-toxic | Non-toxic |
| CN(CCc1ccccc1)CC(O)COc1ccccc1C(=O)CCc1ccc(F)cc1.Cl (racemic) | > 10 | Non-toxic | Non-toxic | Non-toxic | Non-toxic |
| CCN(CC)CC(O)COc1ccccc1C(=O)CCc1ccc(F)cc1.Cl (racemic) | > 10 | Non-toxic | Non-toxic | Non-toxic | Non-toxic |
| CCCN(CCC)CC(O)COc1ccccc1C(=O)CCc1ccc(F)cc1.Cl (racemic) | > 10 | Non-toxic | Non-toxic | Non-toxic | Non-toxic |
| CCCCN(CCCC)CC(O)COc1ccccc1C(=O)CCc1ccc(F)cc1.Cl (racemic) | > 10 | Non-toxic | Non-toxic | Non-toxic | Non-toxic |
| CC(C)N(CC(O)COc1ccccc1C(=O)CCc1ccc(F)cc1)c1ccccc1.Cl (racemic) | > 10 | Non-toxic | Non-toxic | Non-toxic | Non-toxic |
| Cl.O=C(CCc1ccc(F)cc1)c1ccccc1OCC(O)CN(C1CCCCC1)C1CCCCC1 (racemic) | > 10 | Non-toxic | Non-toxic | Non-toxic | Non-toxic |
| Cl.O=C(CCc1ccccc1)c1cc(F)ccc1OCC(O)CNCc1ccccc1 (racemic) | > 10 | Non-toxic | Non-toxic | Non-toxic | Non-toxic |
| Cl.O=C(CCc1ccccc1)c1cc(F)ccc1OCC(O)CN(Cc1ccccc1)c1ccccc1 (racemic) | > 10 | Non-toxic | Non-toxic | Non-toxic | Non-toxic |
| Cc1cccc(N(CC(O)COc2ccc(F)cc2C(=O)CCc2ccccc2)c2ccccc2)c1.Cl (racemic) | > 10 | Non-toxic | Non-toxic | Non-toxic | Non-toxic |
| COc1cccc(N(CC(O)COc2ccc(F)cc2C(=O)CCc2ccccc2)c2ccccc2)c1.Cl (racemic) | > 10 | Non-toxic | Non-toxic | Non-toxic | Non-toxic |
| CN(CCc1ccccc1)CC(O)COc1ccc(F)cc1C(=O)CCc1ccccc1.Cl (racemic) | > 10 | Non-toxic | Non-toxic | Non-toxic | Non-toxic |
| CCN(CC)CC(O)COc1ccc(F)cc1C(=O)CCc1ccccc1.Cl (racemic) | > 10 | Non-toxic | Non-toxic | Non-toxic | Non-toxic |
| CCCN(CCC)CC(O)COc1ccc(F)cc1C(=O)CCc1ccccc1.Cl (racemic) | > 10 | Non-toxic | Non-toxic | Non-toxic | Non-toxic |
| CCCCN(CCCC)CC(O)COc1ccc(F)cc1C(=O)CCc1ccccc1.Cl (racemic) | > 10 | Non-toxic | Non-toxic | Non-toxic | Non-toxic |
| Cl.O=C(CCc1ccccc1)c1cc(F)ccc1OCC(O)CN(C1CCCCC1)C1CCCCC1 (racemic) | > 10 | Non-toxic | Non-toxic | Non-toxic | Non-toxic |
| Cl.O=C(CCc1ccc(F)cc1)c1cc(F)ccc1OCC(O)CNCc1ccccc1 (racemic) | > 10 | Non-toxic | Non-toxic | Non-toxic | Non-toxic |

| Compound | selectivity ratio [1] | Activity (Raji) | Activity (BJ) | Activity (HepG2) | Activity (HEK293) |
| --- | --- | --- | --- | --- | --- |
| Cl.O=C(CCc1ccc(F)cc1)c1cc(F)ccc1OCC(O)CN(Cc1ccccc1)c1ccccc1 (racemic) | > 10 | Non-toxic | Non-toxic | Non-toxic | Non-toxic |
| Cc1cccc(N(CC(O)COc2ccc(F)cc2C(=O)CCc2ccc(F)cc2)c2ccccc2)c1.Cl (racemic) | > 10 | Non-toxic | Non-toxic | Non-toxic | Non-toxic |
| COc1cccc(N(CC(O)COc2ccc(F)cc2C(=O)CCc2ccc(F)cc2)c2ccccc2)c1.Cl (racemic) | > 10 | Non-toxic | Non-toxic | Non-toxic | Non-toxic |
| CN(CCc1ccccc1)CC(O)COc1ccc(F)cc1C(=O)CCc1ccc(F)cc1.Cl (racemic) | > 10 | Non-toxic | Non-toxic | Non-toxic | Non-toxic |
| CCN(CC)CC(O)COc1ccc(F)cc1C(=O)CCc1ccc(F)cc1.Cl (racemic) | > 10 | Non-toxic | Non-toxic | Non-toxic | Non-toxic |
| CCCN(CCC)CC(O)COc1ccc(F)cc1C(=O)CCc1ccc(F)cc1.Cl (racemic) | > 10 | Non-toxic | Non-toxic | Non-toxic | Non-toxic |
| CCCCN(CCCC)CC(O)COc1ccc(F)cc1C(=O)CCc1ccc(F)cc1.Cl (racemic) | > 10 | Non-toxic | Non-toxic | Non-toxic | Non-toxic |
| CC(C)N(CC(O)COc1ccc(F)cc1C(=O)CCc1ccc(F)cc1)c1ccccc1.Cl (racemic) | > 10 | Non-toxic | Non-toxic | Non-toxic | Non-toxic |
| Cl.O=C(CCc1ccc(F)cc1)c1cc(F)ccc1OCC(O)CN(C1CCCCC1)C1CCCCC1 (racemic) | > 10 | Non-toxic | Non-toxic | Non-toxic | Non-toxic |
| Cl.O=C(CCc1ccccc1)c1ccccc1OCC(O)CN1CCCCC1 (racemic) | > 10 | Non-toxic | Non-toxic | Non-toxic | Non-toxic |
| Cl.O=C(CCc1ccccc1)c1ccccc1OCC(O)CN1CCC(Cc2ccccc2)CC1 (racemic) | > 10 | Non-toxic | Non-toxic | Non-toxic | Non-toxic |
| Cl.O=C(CCc1ccccc1)c1ccccc1OCC(O)CN1CCC(c2ccc(Cl)cc2)CC1 (racemic) | > 10 | Non-toxic | Non-toxic | Non-toxic | Non-toxic |
| Cl.O=C(CCc1ccccc1)c1ccccc1OCC(O)CN1CCC(O)(Cc2ccccc2)CC1 (racemic) | > 10 | Non-toxic | Non-toxic | Non-toxic | Non-toxic |
| Cl.O=C(CCc1ccccc1)c1ccccc1OCC(O)CN1CCC(O)(c2ccc(Cl)cc2)CC1 (racemic) | > 10 | Non-toxic | Non-toxic | Non-toxic | Non-toxic |
| Cl.O=C(CCc1ccccc1)c1ccccc1OCC(O)CN1CCN(c2ccccc2)CC1 (racemic) | > 10 | Non-toxic | Non-toxic | Non-toxic | Non-toxic |
| Cl.O=C(CCc1ccccc1)c1ccccc1OCC(O)CN1CCN(Cc2ccccc2)CC1 (racemic) | > 10 | Non-toxic | Non-toxic | Non-toxic | Non-toxic |
| Cc1ccccc1N1CCN(CC(O)COc2ccccc2C(=O)CCc2ccccc2)CC1.Cl (racemic) | > 10 | Non-toxic | Non-toxic | Non-toxic | Non-toxic |
| Cc1cccc(N2CCN(CC(O)COc3ccccc3C(=O)CCc3ccccc3)CC2)c1.Cl (racemic) | > 10 | Non-toxic | Non-toxic | Non-toxic | Non-toxic |
| COc1ccccc1N1CCN(CC(O)COc2ccccc2C(=O)CCc2ccccc2)CC1.Cl (racemic) | > 10 | Non-toxic | Non-toxic | Non-toxic | Non-toxic |

Source: ChEMBL document CHEMBL1914304 (J Med Chem, 2011)
